{
  "source": "paper PMC6745270",
  "about": "(Neuropharmacology, 2019)",
  "key": {"rats [1]": {"tested_on": "rats", "conditions": "ref You et al., 2017, cited from earlier work"}, "[2]": {"conditions": "ref Higley et al., 2011, Maramai et al., 2016, Nathan et al., 2012, Stossel et al., 2017, Thanos et al., 2008, Thomsen et al., You et al.; cited from earlier work"}, "[3]": {"conditions": "ref Xi and Gardner, 2007; cited from earlier work"}, "[4]": {"assay": "Phase I metabolic stability in rat liver microsomes", "format": "in vitro ADME", "conditions": "rat liver microsomes fortified with NADPH, 60 min incubation, 10 μM compound"}, "[5]": {"assay": "Pharmacokinetic study in rats, plasma and brain", "format": "in vivo", "conditions": "rat, plasma, po, 10 mg/kg"}, "Long-Evans rats [6]": {"tested_on": "Long-Evans rats", "assay": "Oxycodone self-administration under FR1 reinforcement", "format": "in vivo, rat"}, "DAT-Cre mice": {"tested_on": "DAT-Cre mice", "assay": "Optical intracranial self-stimulation", "format": "in vivo, mouse", "conditions": "for effect on oICSS: 5 min prior to testing, vs vehicle"}, "rats [7]": {"tested_on": "rats", "assay": "Hot plate thermal nociception test", "format": "in vivo, rat"}, "wild-type C57BL/6J mice": {"tested_on": "wild-type C57BL/6J mice", "assay": "Sucrose self-administration", "format": "in vivo, mouse"}, "rats [8]": {"tested_on": "rats", "assay": "Open-field locomotor activity", "format": "in vivo, rat", "conditions": "10 or 20 mg/kg i.p., vs vehicle"}, "Long-Evans rats [9]": {"tested_on": "Long-Evans rats", "assay": "Oxycodone self-administration under progressive-ratio", "conditions": "20 mg/kg i.p., normalized to baseline, vs vehicle"}, "rats [10]": {"tested_on": "rats", "conditions": "ref Ashby et al., 2003; cited from earlier work"}},
  "note": "Counter-ions that a name gives are not always drawn.",
  "data": [
    {"molecule": "CCc1cc(Cl)c(OC)c(N2CCN(CC(O)CCNC(=O)c3cc4ccccc4[nH]3)CC2)c1", "note": "(racemic) [(±)VK4-116]", "values": [
      {"measurement": "effect on oxycodone self-administration", "setting": "rats [1]; FR1 and PR schedules", "result": "dose-dependently inhibited oxycodone self-administration"},
      {"measurement": "effect on oxycodone-triggered reinstatement of drug-seeking", "setting": "rats [1]", "result": "suppressed oxycodone-triggered reinstatement of drug-seeking behavior"}
    ]},
    {"molecule": "Cc1ncoc1-c1nnc(SCCCN2C[C@@H]3C[C@]3(c3ccc(C(F)(F)F)cc3F)C2)n1C", "note": "[GSK598809]", "values": [
      {"measurement": "effect on food-taking and food-seeking behavior", "setting": "[2]", "result": "significantly inhibit food-taking and food-seeking behavior"}
    ]},
    {"molecule": "O=C(NCCCCN1CCN(c2cccc(Cl)c2Cl)CC1)c1ccc2c(c1)Cc1ccccc1-2", "note": "[NGB-2904]", "values": [
      {"measurement": "effect on food-taking and food-seeking behavior", "setting": "[2]", "result": "significantly inhibit food-taking and food-seeking behavior"},
      {"measurement": "effect on cocaine-induced extracellular nucleus accumbens DA", "setting": "[3]", "result": "enhanced cocaine-induced increases in extracellular nucleus accumbens DA"}
    ]},
    {"molecule": "O=C(NC/C=C/CN1CCN(c2cccc(Cl)c2Cl)CC1)c1ccc(-c2ccccn2)cc1", "note": "[PG01037]", "values": [
      {"measurement": "effect on food-taking and food-seeking behavior", "setting": "[2]", "result": "significantly inhibit food-taking and food-seeking behavior"}
    ]},
    {"molecule": "CCc1cccc(N2CCN(C[C@H](O)CCNC(=O)c3cc4ccccc4[nH]3)CC2)c1Cl.Cl", "note": "[R-VK4-40, (R)-N-(4-(4-(2-Chloro-3-ethylphenyl)piperazin-1-yl)-3-hydroxybutyl)-1H-indole-2-carboxamide HCl]", "values": [
      {"measurement": "% intact remaining", "setting": "[4]", "result": "86±2", "unit": "%"},
      {"measurement": "AUC(0-t)", "setting": "[5]", "result": "1.99 ± 0.28", "unit": "µM·h"},
      {"measurement": "Cmax", "setting": "[5]", "result": "310 ± 110", "unit": "nM"},
      {"measurement": "effect on oxycodone self-administration (infusions earned)", "setting": "Long-Evans rats [6]; FR1, 10 or 20 mg/kg i.p. 30 min before session, oxycodone 0.0031-0.05 mg/kg/infusion", "result": "dose-dependent reduction in oxycodone self-administration"},
      {"measurement": "effect on daily oxycodone intake", "setting": "Long-Evans rats [6]; FR1, 10 or 20 mg/kg i.p. pretreatment", "result": "reduced oxycodone intake at the 0.00625 and 0.05 mg/kg doses"},
      {"measurement": "effect on inactive lever responding", "setting": "Long-Evans rats [6]; FR1 oxycodone self-administration", "result": "no effect on inactive lever responding"},
      {"measurement": "effect on oICSS, compound alone", "setting": "DAT-Cre mice; R-VK4-40 alone i.p. (10, 20 mg/kg as printed elsewhere in the source)", "result": "significant reduction in oICSS"},
      {"measurement": "effect of pretreatment on oxycodone-enhanced oICSS", "setting": "DAT-Cre mice; pretreatment before 1 mg/kg oxycodone", "result": "significantly reduced low-dose (1 mg/kg) oxycodone enhancements in oICSS"},
      {"measurement": "effect of pretreatment on %MPE", "setting": "rats [7]; 20 mg/kg i.p., after 1 mg/kg oxycodone", "result": "significant elevation of %MPE"},
      {"measurement": "effect of pretreatment on oxycodone analgesia dose-response curve", "setting": "rats [7]; 10 or 20 mg/kg i.p. 30 min before oxycodone 0.5-4 mg/kg i.p.", "result": "shifted the oxycodone dose-response curve significantly upward"},
      {"measurement": "effect on number of sucrose reinforcers earned", "setting": "wild-type C57BL/6J mice; 3 mg/kg i.p., vs vehicle", "result": "no statistically significant differences"},
      {"measurement": "effect on number of sucrose reinforcers earned", "setting": "wild-type C57BL/6J mice; 10 mg/kg i.p., vs vehicle and 3 mg/kg", "result": "significantly reduced the number of sucrose reinforcers earned"},
      {"measurement": "effect on open-field locomotion", "setting": "rats [8]", "result": "no effect on open-field locomotion"},
      {"measurement": "effect on PR break-point for oxycodone self-administration", "setting": "Long-Evans rats [9]", "result": "significant decrease in break-point"}
    ]},
    {"molecule": "N#Cc1ccc2c(c1)CCN(CCC1CCC(NC(=O)c3ccnc4ccccc34)CC1)C2", "note": "(stereo not shown) [SB-277011A]", "values": [
      {"measurement": "effect on food-taking and food-seeking behavior", "setting": "[2]", "result": "significantly inhibit food-taking and food-seeking behavior"},
      {"measurement": "effect on opioid-induced conditioned place preference", "setting": "rats [10]", "result": "significantly inhibits opioid-induced conditioned place preferences (CPP)"}
    ]},
    {"molecule": "COc1ccc2c3c1O[C@H]1C(=O)CC[C@@]4(O)[C@@H](C2)N(C)CC[C@]314", "note": "[oxycodone, Oxycodone HCl, reference compound]", "values": [
      {"measurement": "effect on oICSS", "setting": "DAT-Cre mice; 1 mg/kg i.p.", "result": "significant increase in oICSS"},
      {"measurement": "effect on oICSS", "setting": "DAT-Cre mice; 3 mg/kg i.p.", "result": "significant reduction in oICSS"},
      {"measurement": "time of peak antinociceptive effect", "setting": "rats [7]; hot plate, after administration", "result": 30, "unit": "min"}
    ]}
  ]
}
